Here are results for three compounds from paper PMC10011747, “Targeting androgen receptor and the variants by an orally bioavailable Proteolysis Targeting Chimeras compound in castration resistant prostate cancer” (eBioMedicine, 2023).

The target in the test is T1, AR-V7 (Homo sapiens, UniProt P10275).
T1 construct: endogenous in cells; host or cells: CWR22Rv1, VCaP
T1 sequence (P10275 1-644 isoform P10275-3): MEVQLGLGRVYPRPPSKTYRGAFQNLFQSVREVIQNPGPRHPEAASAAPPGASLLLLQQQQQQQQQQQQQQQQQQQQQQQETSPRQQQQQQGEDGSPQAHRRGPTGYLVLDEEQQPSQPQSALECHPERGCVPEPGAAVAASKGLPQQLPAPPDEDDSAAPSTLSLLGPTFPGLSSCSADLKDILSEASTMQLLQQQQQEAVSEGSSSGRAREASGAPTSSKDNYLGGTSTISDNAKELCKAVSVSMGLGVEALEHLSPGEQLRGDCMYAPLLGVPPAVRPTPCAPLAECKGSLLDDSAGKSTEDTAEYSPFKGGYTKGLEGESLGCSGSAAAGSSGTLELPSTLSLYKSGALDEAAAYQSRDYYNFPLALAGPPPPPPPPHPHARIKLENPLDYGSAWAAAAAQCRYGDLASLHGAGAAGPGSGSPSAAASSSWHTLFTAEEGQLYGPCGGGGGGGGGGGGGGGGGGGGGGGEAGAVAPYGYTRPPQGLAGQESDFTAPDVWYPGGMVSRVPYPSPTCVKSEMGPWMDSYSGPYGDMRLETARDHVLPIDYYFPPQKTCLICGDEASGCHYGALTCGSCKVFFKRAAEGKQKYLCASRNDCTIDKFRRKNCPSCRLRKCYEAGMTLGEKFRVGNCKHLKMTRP
The experiment in a line: AR-V7 degradation by western blot (AR-V7 specific antibody). Type of test: cell-based. The conditions noted are these: for DC50: 24 h treatment; for Dmax at 20 µM: maximum degradation at 20 μM. As to the method:
To obtain total lysates, cells were lysed in RIPA buffer (50 mM Tris–HCl pH 8.0, 150 mM NaCl, 1% NP-40, 0.5% Na-deoxycholate, 0.5% SDS plus protease inhibitors). The lysates were resolved by SDS-polyacrylamide gel electrophoresis, and the protein expression was analyzed by western blotting using primary antibodies against AR (Millipore Cat# 06-680, RRID:AB_310214), AR-V7 (RevMAb Biosciences Cat# 31-1109-00, RRID:AB_2716436), GAPDH (Cell Signaling Technology Cat# 2118, RRID:AB_561053) and Actin (Sigma–Aldrich Cat# A5441, RRID:AB_476744). pLenti4/TO/Flag-AR or pLenti4/TO/Flag-TC-AR plasmid was co-transfected with HA-ubiquitin plasmid into 293T cells. 24 h after transfection, the cells were treated with 10 μM of the PROTAC compounds for 16 h, followed by 4-h treatment of 5 μM MG132. The cells were lysed with lysis buffer (50 mM Tris–HCl pH7.5, 150 mM NaCl, 0. 5% Triton X-100, 10% glycerol, 1 mM EDTA plus protease inhibitors) containing 1 ng/mL of N-ethylmaleimide, followed by immunoprecipitation with anti-Flag M2 (Sigma–Aldrich Cat# F3165, RRID:AB_259529) antibody. The ubiquitinated AR was then detected by western blotting using anti-HA (Sigma–Aldrich Cat# H3663, RRID:AB_262051) antibody.
Fig. 1 PROTAC-based AR degraders ITRI-90, ITRI-125 and ITRI-126 reduce AR and AR-V7 proteins in prostate cancer cell lines. (a) Chemical structure of the PROTAC AR degraders. (b) Representative western blots of AR protein levels in LNCaP, CWR22Rv1 and VCaP cells treated with the PROTAC degraders for 24 h. AR was detected by N-terminal antibody which also detects C-terminal truncated AR-V(ΔLBD) in CWR22Rv1 cells. AR-V7 specific antibody was used for AR-V7 detection. 4%–12% gradient gel was used to separate different species of AR-V(ΔLBD) near 75 kDa in CWR22Rv1 cell lysates. DC50 indicating the concentration required to achieve 50% degradation, was calculated based on normalized full-length AR and AR-V7 band intensity. Dmax is the maximum degradation achieved at 20 μM compound treatment. TEXT PRINTED IN THE PICTURE: (a) ITRI-90: AR DC50 (μM) LNCaP: 2.12 ± 0.93; AR DC50 (μM) CWR22Rv1: 5.73 ± 2.28; AR DC50 (μM) VCaP: 8.67 ± 4.87; AR-V7 DC50 (μM) CWR22Rv1: 4.72 ± 2.52; AR-V7 DC50 (μM) VCaP: 0.29 ± 0.15; AR Dmax (%) LNCaP: 88; AR Dmax (%) CWR22Rv1: 98; AR Dmax (%) VCaP: 90; AR-V7 Dmax (%) CWR22Rv1: 100; AR-V7 Dmax (%) VCaP: 63 | (a) ITRI-125: AR DC50 (μM) LNCaP: 6.10 ± 4.43; AR DC50 (μM) CWR22Rv1: 6.64 ± 1.87; AR DC50 (μM) VCaP: 9.05 ± 3.75; AR-V7 DC50 (μM) CWR22Rv1: 1.89 ± 1.06; AR-V7 DC50 (μM) VCaP: 0.52 ± 0.37; AR Dmax (%) LNCaP: 71; AR Dmax (%) CWR22Rv1: 96; AR Dmax (%) VCaP: 85; AR-V7 Dmax (%) CWR22Rv1: 99; AR-V7 Dmax (%) VCaP: 67 | (a) ITRI-126: AR DC50 (μM) LNCaP: 3.41 ± 3.13; AR DC50 (μM) CWR22Rv1: 0.11 ± 0.02; AR DC50 (μM) VCaP: 0.851 ± 0.43; AR-V7 DC50 (μM) CWR22Rv1: 0.011 ± 0.003; AR-V7 DC50 (μM) VCaP: 0.43 ± 0.19; AR Dmax (%) LNCaP: 99; AR Dmax (%) CWR22Rv1: 74; AR Dmax (%) VCaP: 94; AR-V7 Dmax (%) CWR22Rv1: 91; AR-V7 Dmax (%) VCaP: 82
(In western blotting, separated proteins are transferred to a membrane and probed.)

Setting [1] is: CWR22Rv1 cells, read-out: AR-V7 DC50 CWR22Rv1.
Where [2] appears, read: CWR22Rv1 cells, read-out: AR-V7 Dmax CWR22Rv1.
Where [3] appears, read: VCaP cells, read-out: AR-V7 DC50 VCaP.
Setting [4] is: VCaP cells, read-out: AR-V7 Dmax VCaP.

Read-outs that look alike come from different tables or passages of the source.

Turning to `Cc1ncsc1-c1ccc(CNC(=O)[C@@H]2C[C@H](O)CN2C(=O)[C@@H](NC(=O)COCCCCOc2ccc(C3CCN(C4=Nn5c(nnc5C(F)(F)F)CC4)CC3)cc2)C(C)(C)C)cc1` [ITRI-90, (2S,4S)-1-((S)-3,3-dimethyl-2-(2-(4-(4-(1-(3-(trifluoromethyl)-7,8-dihydro-[1,2,4]triazolo[4,3-b]pyridazin-6-yl)piperidin-4-yl)phenoxy)butoxy)acetamido)butanoyl)-4-hydroxy-N-(4-(4-methylthiazol-5-yl)benzyl)pyrrolidine-2-carboxamide], the DC50 (usually the concentration giving 50% degradation) stood at 4720 ± 2520 nM under setting [1] and 290 ± 150 nM under setting [3]. Moreover, the Dmax (commonly the greatest extent of degradation seen) at 20 µM by setting is: under setting [2], 100%; under setting [4], 63%.

With `Cc1ncsc1-c1ccc(CNC(=O)[C@@H]2C[C@H](O)CN2C(=O)[C@@H](NC(=O)COCCCCCCOc2ccc(C3CCN(C4=Nn5c(nnc5C(F)(F)F)CC4)CC3)cc2)C(C)(C)C)cc1` [ITRI-125, (2S,4S)-1-((S)-3,3-dimethyl-2-(2-(6-(4-(1-(3-(trifluoromethyl)-7,8-dihydro-[1,2,4]triazolo[4,3-b]pyridazin-6-yl)piperidin-4-yl)phenoxy)hexyloxy)acetamido)butanoyl)-4-hydroxy-N-(4-(4-methylthiazol-5-yl)benzyl)pyrrolidine-2-carboxamide], the 50% degradation concentration (DC50) is, setting by setting: under setting [1], 1890 ± 1060 nM; under setting [3], 520 ± 370 nM. Besides, the Dmax at 20 µM was 99% under setting [2] and 67% under setting [4].

With `O=C1CCC(N2Cc3c(NC(=O)COCCCCOc4ccc(C5CCN(C6=Nn7c(nnc7C(F)(F)F)CC6)CC5)cc4)cccc3C2=O)C(=O)N1` (stereo not drawn) [ITRI-126, N-(2-(2,6-dioxopiperidin-3-yl)-1-oxoisoindolin-4-yl)-2-(4-(4-(1-(3-(trifluoromethyl)-7,8-dihydro-[1,2,4]triazolo[4,3-b]pyridazin-6-yl)piperidin-4-yl)phenoxy)butoxy)acetamide], the DC50 under setting [1] stood at 11 ± 3 nM and the DC50 under setting [3] was 430 ± 190 nM. The maximal degradation (Dmax) at 20 µM was found to be 91% under setting [2] and 82% under setting [4].
